Reference: PMC6076261, “A new quinoline-based chemical probe inhibits the autophagy-related cysteine protease ATG4B” (Scientific Reports, 2018)

Legend:
SKBR3-hrGFP-LC3B cells = experiment: High content screening of GFP-LC3B puncta; format: cell-based; conditions: 100 nM, 1 µM, 10 µM; 6 h and 24 h
From the text: One hundred of the predicted best binding ATG4B inhibitors were obtained to test for effects on GFP-LC3B puncta levels in SKBR3-hrGFP-LC3B breast cancer cells cultured in standard fed conditions. Based on our observations using ATG4B-siRNAs (Figs 2a,b and S1) and several reports in the literature[22]–[24], we expected that reduced ATG4B function would primarily affect LC3B-II recycling and lead to an increase in GFP-LC3B puncta, whereas complete loss of ATG4B would also affect pro-LC3B processing and lead to a decrease in GFP-LC3B puncta formation. Compounds were initially tested at three concentrations (100 nM, 1 µM and 10 µM) and two treatment periods (6 hour and 24 hour). In parallel, all compounds were tested at a single concentration (8 µM) in a FRET-LC3 ATG4B enzymatic assay developed in our group. […] Calculations predicted that compound 1–4 bound to closed binding site#1 (Fig. S2) while 2–22 and 3–22 bound to open site#2 (Fig. S3) and 4–6 and 4–28 bound to closed site#2 (Figs S4 and S5). Of these, compounds 1–4 and 4–6 are biphenols which are potentially metabolically unstable by oxidation, sulfation and glucuronidation pathways. Compound 2–22 and 3–22 have electrophilic sites, which are drawbacks for drug development as they are prone to metabolic transformation and could lead to covalent bond formation with biological nucleophiles. […] It was nonetheless selected for further follow-up based on its favorable structural characteristics and resemblance to the known drugs and lysosomal-related autophagy inhibitors, chloroquine and hydroxychloroquine, and to the styrylquinoline, MK-571, a selective antagonist of leukotriene D4 known to have an excellent pharmacokinetic profile in terms of oral bioavailability and long duration of action.
High-throughput fluorescence microscopy was performed at room-temperature on the InCell Analyzer 1000 (GE Healthcare) using the 20X objective to view Hoescht 33342 nuclear stain, ethidium homodimer (EthD1) viability stain and GFP-LC3 puncta in SKBR3-hrGFP-LC3B cells. Thirty min prior to imaging, cells were incubated at 37 °C with 4 µM Hoechst 33342 (Invitrogen) and 0.5 µM EthD1 (Invitrogen). Image analysis was performed using InCell Developer Toolbox (Ver. 1.6, GE Healthcare). Individual cells were identified with segmentation of nuclei based on Hoechst 33342 staining. Cell borders were determined by defining a radius around the nucleus. Cells were classified as “dead” if the defined cell overlapped by at least 50% with the EthD1 signal. The number of GFP-LC3 puncta within each live cell was then counted, as well as the number of live cells with at least 5 puncta. Puncta were defined as GFP positive structures of at least 1 pixel with a form factor (estimate of circularity) of at least 0.4.

ATG4B [1] = biological target: T1, ATG4B (Homo sapiens, UniProt Q9Y4P1); experiment: Fluorimetric ATG4B enzymatic assay with fluorescent peptide substrate pim-FG-PABA-AMC; format: biochemical; conditions: for IC50: pim-FG-PABA-AMC substrate, read-out: IC50, fluorimetric assay with fluorogenic peptide substrate
T1 sequence (Q9Y4P1 1-393): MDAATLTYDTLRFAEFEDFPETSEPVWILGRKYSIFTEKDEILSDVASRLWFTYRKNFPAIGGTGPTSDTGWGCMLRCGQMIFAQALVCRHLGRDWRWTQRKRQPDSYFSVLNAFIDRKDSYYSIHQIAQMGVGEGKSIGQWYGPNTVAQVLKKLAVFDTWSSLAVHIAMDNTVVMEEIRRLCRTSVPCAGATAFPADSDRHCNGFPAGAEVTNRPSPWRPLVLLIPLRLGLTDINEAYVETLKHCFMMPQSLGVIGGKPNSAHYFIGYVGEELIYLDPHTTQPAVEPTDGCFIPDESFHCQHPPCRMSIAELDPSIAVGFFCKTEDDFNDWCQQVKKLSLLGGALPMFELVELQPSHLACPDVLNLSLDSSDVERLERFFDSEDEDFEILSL
Procedure: 100 μL of immobilized TCEP in deionized water was diluted in 2.50 mL of buffer (50 mM Tris, 35 mM NaCl, pH = 8). The sample was centrifuged at 10,000 × g during 1 min. The supernatant was removed. This operation was done two more times. […] The solution was incubated on a carousel at 4 °C for 1 h. This solution was then diluted with 2.06 mL of buffer (50 mM Tris, 35 mM NaCl, 5 mM EDTA, pH 8), centrifuged at 10,000 × g during 1 min and the supernatant, containing the activated ATG4B (1 µM), was kept. A 96-well all-black plate was loaded where each well was charged with 55 µL of inhibitor at different concentrations (0 µM to 100 µM or 200 µM) in buffer/DMSO 41:3 (v/v) and 20 μL of enzyme or buffer were dispensed using a dispenser (Biotek). Plate was incubated for 30 min. A single read was done using excitation and emission wavelengths of 350/450 nm. 25 µL of peptide substrate (pim-FG-PABA-AMC)[52] (final assay concentration 100 µM) was dispensed using a dispenser (Biotek). Experiments were performed in triplicate except when it is mentioned. Fluorescent reads were performed using the Synergy 4 (Biotek) at 25 °C using excitation and emission wavelengths of 350/450 nm every 15 min for 2 h.

ATG4B [2] = biological target: T1, ATG4B; experiment: Mass spectrometry ATG4B enzymatic assay with GFP-LC3-YFP substrate
Procedure: The sample was centrifuged at 10000 × g during 1 min. The supernatant was removed. This operation was done two more times. […] 15 µL of this ATG4B solution were mixed with the 20 µL rinsed immobilized TCEP solution. The solution was incubated on a carousel at 4 °C for 1 h. […] Kinetic determination was performed in triplicate in 1 dram HPLC vials using 350 µL glass inserts. […] The analysis of the m/z distribution signal resulting from the protein substrate was performed by Agilent MassHunter Workstation software elucidating proteins 20000–80000 Da between 700 m/z and 1800 m/z. […] The amount of cleavage was determined by calculating the value of the formula A/(A + B) where A was the peak height of the 27885 Da residue and B was the peak height of the 72904 Da residue. Each experiment was assessed with a concomitant parallel negative control.

[3] = Stability of 4-28 under irradiation, HPLC analysis; format: physicochemical
From the text: 4–28 is a 4-aminostyrylquinoline, a structural class known to be photo-reactive[51]. In preliminary assays under standard conditions with the reducing agent TCEP present, we noted the formation of isomers and adducts between 4–28 and TCEP (Fig. 3b). Thus, to confirm the ability of 4–28 to inhibit ATG4B activity, we used a mass spectrometry assay using a GFP-LC3-YFP substrate[36] and by using activation of the enzyme with TCEP on solid support, which can be easily removed after the activation and prior to incubation with the inhibitor. […] (Fig. 3d). […] By these two assays, we confirmed the ability of 4–28 to inhibit ATG4B catalytic activity.
In our case, with incubation of 4–28 for 1 h under UV-irradiation, the formation of the cis compound was observed by HPLC and ^1H NMR along with other compounds consistent with further electrocyclization (Figs 3b and S6 and S7). Given these observed instabilities and reactivity, a structure-activity relationship study was initiated with an aim to identify an analog with improved stability and enhanced potency against ATG4B and with a pharmacokinetic profile suitable to support in vivo testing.

ATG4B [4] = biological target: T1, ATG4B; experiment: FRET-LC3 ATG4B enzymatic assay; format: biochemical; conditions: read-out: inhibition in the screening FRET assay
MCF7 cells = experiment: LC3B-based autophagy flux assay (western blot) in MCF7 cells; format: cell-based; conditions: with and without bafilomycin A1
From the text: While the effects observed were modest, this observation is consistent with reduced LC3B-II recycling and reduced autophagic flux.

IC50 (ATG4B [1]) [µM]	Structure (SMILES)	effect on GFP-LC3 puncta in primary screen (SKBR3-hrGFP-LC3B cells)	other results
	O=C(Nc1ccc([N+](=O)[O-])cc1)C(=O)C(C(=O)c1ccccc1F)C1OC(=O)c2ccccc21 (stereo not shown) [3–22]	increase in GFP-LC3 puncta	
	Cc1cc(Cc2cc(C)c(O)c(CO)c2)cc(CO)c1O [1–4]	increase in GFP-LC3 puncta	
> 100	CCOC(=O)CCSC(SCCC(=O)OCC)c1ccc(/C=C/c2ccnc3cc(Cl)ccc23)cc1 [Compound 68]		
	CCN(CCO)CCCC(C)Nc1ccnc2cc(Cl)ccc12 (stereo not shown) [hydroxychloroquine, reference compound]		inhibition of activity of purified ATG4B (ATG4B [1]; up to 200 µM): did not show significant inhibition
> 100	C=CCSC(SCC=C)c1ccc(/C=C/c2ccnc3cc(Cl)ccc23)cc1 [Compound 69]		
	COc1cccc(NC(=O)C(=O)C(C(=O)c2ccccc2F)C2OC(=O)c3ccccc32)c1 (stereo not shown) [2–22]	increase in GFP-LC3 puncta	

Structure (SMILES)	IC50 (ATG4B [1]) [µM]	effect on GFP-LC3 puncta in primary screen (SKBR3-hrGFP-LC3B cells)	other results
CCCCN(CCC(=O)O)c1ccc(/C=C/c2ccnc3ccccc23)cc1 [4–28]	79 ± 9	decrease in GFP-LC3 puncta	IC50 (ATG4B [2]): 116 ± 14 µM; cis-isomer formed under assay conditions ([3]; 1 irradiation at 350 nm each 15 min for 2 h): 4%; stability under UV irradiation ([3]; 1 h UV irradiation, HPLC and 1H NMR): instability under UV irradiation; inhibition at 8 µM (ATG4B [4]): 43%; endogenous LC3B-II (MCF7 cells): accumulation of LC3B-II that was not additive to bafilomycin A1
